Some test systems named below: TK-10 renal; HOP-92 NSCLC; SF-295 CNS; SR leukemia; 786-0 renal; NCI-H460 lung; K-562 leukemia; HOP-62 NSCLC; HCT-116 colon; RXF 393 renal.
Common to all, as to assay: inhibition of tumour cell growth, NCI panel, 48 h

Molecules are shown by their SMILES.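 The compound was tested at five concentrations on cells cultured in 96-well plates, with a 48-hour exposure period. The concentration for 50% growth inhibition is given as GI50. At the TGI there is no net growth.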

As for `COc1cc(N2CCN(C(C)C)CC2)ccc1Nc1nc(Nc2ccc(F)cc2C(=O)NCC(O)CO)c2cc[nH]c2n1` (stereo not given), the GI50 with TK-10 renal was 11.9 µM; in the test on HOP-92 NSCLC, 0.182 µM; with SF-295 CNS, 11.4 µM; with SR leukemia, 1.13 µM; with 786-0 renal, greater than 23.3 µM; in the test with NCI-H460 lung it was 6.05 µM. The GI50 with K-562 leukemia was greater than 19.9 µM; with HOP-62 NSCLC, 4.09 µM; with HCT-116 colon, 1.69 µM; with RXF 393 renal, 11.4 µM. The TGI with TK-10 renal was greater than 25 µM; with HOP-92 NSCLC, 2.09 µM; with SF-295 CNS, greater than 25 µM; with SR leukemia, greater than 14 µM; with 786-0 renal, greater than 25 µM; in the test on NCI-H460 lung, 19.4 µM. Further, the TGI in the test with K-562 leukemia, in the test on HOP-62 NSCLC, in the test with HCT-116 colon and with RXF 393 renal was greater than 25 µM throughout.
`CCSc1nc(NC(C)c2ccccc2)c2cnn(CO)c2n1` (stereo not given): the GI50 in the test with TK-10 renal was 47.7 µM; in the test on HOP-92 NSCLC, 18.2 µM; in the test with SF-295 CNS, 35.2 µM; in the test with SR leukemia, 79.4 µM; with 786-0 renal, 59.9 µM; in the test on NCI-H460 lung, 32.8 µM. Besides, the GI50 was 29.2 µM in the test with K-562 leukemia, greater than 100 µM in the test with HOP-62 NSCLC, greater than 100 µM in the test with HCT-116 colon and 91.5 µM with RXF 393 renal. The TGI in the test on TK-10 renal is greater than 100 µM; with HOP-92 NSCLC, 97.1 µM; in the test with SF-295 CNS, greater than 100 µM; with SR leukemia, greater than 100 µM; with 786-0 renal, greater than 100 µM; in the test with NCI-H460 lung, greater than 100 µM. In addition, the TGI with K-562 leukemia, in the test on HOP-62 NSCLC, in the test with HCT-116 colon and in the test with RXF 393 renal was greater than 100 µM each time.
`O=C1CC(C(=O)O)Cc2c(Br)ccc(O)c21` (stereo not given): the TGI with TK-10 renal, in the test with HOP-92 NSCLC, with SF-295 CNS, in the test on SR leukemia, in the test on 786-0 renal and in the test on NCI-H460 lung was greater than 100 µM throughout. Besides, the TGI in the test on K-562 leukemia, in the test with HOP-62 NSCLC, in the test with HCT-116 colon and in the test with RXF 393 renal was greater than 100 µM throughout.
As for `COc1ccc(C2=NN(C=O)C(c3ccc(OS(=O)(=O)c4ccc(C)cc4)c(OC)c3)C2)cc1` (stereo not given), the GI50 is greater than 100 µM in the test on TK-10 renal; 1.88 µM in the test with HOP-92 NSCLC; 3.58 µM with SF-295 CNS; 3.02 µM in the test on SR leukemia; 21.6 µM in the test on 786-0 renal; 8.86 µM with NCI-H460 lung. Besides, the GI50 in the test on K-562 leukemia was 2.45 µM; in the test on HOP-62 NSCLC, 9.47 µM; with HCT-116 colon it was 4.56 µM; with RXF 393 renal, 3.81 µM. Further, the TGI was greater than 100 µM in the test with TK-10 renal; 31.1 µM in the test with HOP-92 NSCLC; 25.2 µM with SF-295 CNS; greater than 100 µM in the test with SR leukemia; greater than 100 µM with 786-0 renal; greater than 100 µM with NCI-H460 lung. The TGI is greater than 100 µM in the test with K-562 leukemia, 74 µM in the test with HOP-62 NSCLC, greater than 100 µM in the test on HCT-116 colon and 46.8 µM in the test on RXF 393 renal.
On to `Cc1ccc(/C=C(/C#N)n2nnc3ncccc32)cc1`, for which the GI50 in the test on TK-10 renal is 2.39 µM; in the test on HOP-92 NSCLC, 1.82 µM; in the test on SF-295 CNS, 3.77 µM; with SR leukemia, 0.765 µM; with 786-0 renal, 2.99 µM; with NCI-H460 lung, 2.69 µM. Further, the GI50 was 0.545 µM in the test on K-562 leukemia, 3.17 µM with HOP-62 NSCLC, 2.2 µM in the test with HCT-116 colon and 1.54 µM in the test with RXF 393 renal. Further, the TGI in the test on TK-10 renal is 9.22 µM; with HOP-92 NSCLC it was 6.19 µM; in the test with SF-295 CNS, 16.2 µM; in the test with SR leukemia it was 26.8 µM; in the test on 786-0 renal, 16.4 µM; in the test on NCI-H460 lung it was 7.76 µM. In addition, the TGI is greater than 100 µM in the test with K-562 leukemia, 12.9 µM in the test with HOP-62 NSCLC, 11.1 µM in the test with HCT-116 colon and 6.54 µM with RXF 393 renal.

For the origin of these results see PubChem BioAssay (NCI).
